Experiments:
[1] = molecular target: ERα in MCF7 cells (Homo sapiens (Human), UniProt P03372); assay: Test C: estrogen receptor degradation activity, ERα in cell western assay in MCF7 cells; type: cell-based; conditions: for DC50: 4 hours post compound addition, ERα in cell western, read-out: Degradation IC50; for % Degradation at 3 μM: 4 hours, relative to fulvestrant
Procedure, shortened: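 Degradation of ERα was gauged in MCF7 cells after 4 h treatment, by fluorescence immunostaining normalised against DNA content.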

[2] = molecular target: His6-ERα298-554 WT (ERα ligand-binding domain) (Homo sapiens (Human), UniProt P03372); assay: Test A: biochemical antagonist activity, LanthaScreen TR-FRET ERα coactivator assay, WT; conditions: asterisk (*): protocol using 10 nM estradiol; read-out: Antagonism WT IC50
His6-ERα298-554 WT (ERα ligand-binding domain), sequence (P03372 298-554): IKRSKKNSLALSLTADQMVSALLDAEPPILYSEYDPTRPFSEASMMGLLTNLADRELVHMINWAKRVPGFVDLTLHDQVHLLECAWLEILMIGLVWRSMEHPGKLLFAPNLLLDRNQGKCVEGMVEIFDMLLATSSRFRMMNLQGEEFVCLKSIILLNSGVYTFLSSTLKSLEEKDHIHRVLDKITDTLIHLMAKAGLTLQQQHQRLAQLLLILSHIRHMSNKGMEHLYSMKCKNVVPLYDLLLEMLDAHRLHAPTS
Procedure, shortened: (§1)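 Compounds were added to receptor LBD (0.5 nM), terbium-labelled His6 antibody (0.5 nM), PGC1a coactivator peptide (250 nM) and estradiol at 3 nM or 10 nM. After incubating overnight at room temperature, the 520:495 nm ratio gave IC50 values by four-parameter logistic regression.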

[3] = tested on: MCF7 cells (breast tumor cells) WT; assay: Test B: cell proliferation/viability assay (CellTiter-Glo) on MCF7 WT; type: cell-based; conditions: Homo sapiens, MCF7, 168 h, 7 days of compound exposure
Procedure, shortened: (§2)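 Viability is measured in MCF7 cells, either parental or engineered to depend on mutant estrogen receptor. Compounds act for 7 days at final concentrations from 3 to 0.000001 μM in hormone-depleted medium, with ATP luminescence as the read-out.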

[4] = tested on: MCF7 cells expressing mutant estrogen receptor Asp 538 Gly; assay: Test B: cell proliferation/viability assay (CellTiter-Glo) on MCF7 Asp 538 Gly mutant; type: cell-based; conditions: Homo sapiens, MCF7, 168 h, MCF7 cells expressing ER Asp 538 Gly mutant, 7 days of compound exposure, read-out: proliferation MCF7 D538G IC50
Procedure, shortened: as §2

[5] = tested on: MCF7 cells expressing mutant estrogen receptor Tyr 537 Ser; assay: Test B: cell proliferation/viability assay (CellTiter-Glo) on MCF7 Tyr 537 Ser mutant; type: cell-based; conditions: Homo sapiens, MCF7, 168 h, MCF7 cells expressing ER Tyr 537 Ser mutant, 7 days of compound exposure, read-out: proliferation MCF7 Y537S IC50
Procedure, shortened: as §2

[6] = molecular target: His6-ERα298-554 Y537S mutant (ERα ligand-binding domain) (Homo sapiens (Human), UniProt P03372, Y537S); assay: Test A: biochemical antagonist activity, LanthaScreen TR-FRET ERα coactivator assay, Y537S mutant; conditions: asterisk (*): protocol using 10 nM estradiol; read-out: Antagonism Y537S IC50
His6-ERα298-554 Y537S mutant (ERα ligand-binding domain), sequence (P03372 298-554 Y537S): as the sequence (P03372 298-554) above, with Y240S counted along it
Procedure, shortened: as §1

[7] = molecular target: His6-ERα298-554 D538G mutant (ERα ligand-binding domain) (Homo sapiens (Human), UniProt P03372, D538G); assay: Test A: biochemical antagonist activity, LanthaScreen TR-FRET ERα coactivator assay, D538G mutant; conditions: asterisk (*): protocol using 10 nM estradiol; read-out: Antagonism D538G IC50
His6-ERα298-554 D538G mutant (ERα ligand-binding domain), sequence (P03372 298-554 D538G): as the sequence (P03372 298-554) above, with D241G counted along it
Procedure, shortened: as §1

ERα in MCF7 cells, sequence (P03372 whole entry): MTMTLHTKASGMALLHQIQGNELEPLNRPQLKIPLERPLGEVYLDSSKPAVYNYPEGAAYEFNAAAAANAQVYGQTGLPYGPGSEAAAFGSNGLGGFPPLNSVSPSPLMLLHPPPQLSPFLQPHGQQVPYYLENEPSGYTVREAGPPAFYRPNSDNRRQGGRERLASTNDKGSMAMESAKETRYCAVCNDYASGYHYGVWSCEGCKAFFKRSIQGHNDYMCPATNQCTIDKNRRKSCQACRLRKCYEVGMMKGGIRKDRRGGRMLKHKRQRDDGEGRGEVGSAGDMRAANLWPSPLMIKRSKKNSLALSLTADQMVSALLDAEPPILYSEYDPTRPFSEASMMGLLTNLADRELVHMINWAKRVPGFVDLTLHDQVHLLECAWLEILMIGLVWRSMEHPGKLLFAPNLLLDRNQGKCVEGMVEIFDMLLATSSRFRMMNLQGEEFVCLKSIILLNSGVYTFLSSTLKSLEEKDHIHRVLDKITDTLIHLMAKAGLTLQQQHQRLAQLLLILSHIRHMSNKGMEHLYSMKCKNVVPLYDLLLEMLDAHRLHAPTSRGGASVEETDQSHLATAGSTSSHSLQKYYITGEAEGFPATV

Compound | DC50 [1] [nM] | % Degradation at 3 μM [1] [%] | IC50 [2] [nM] | IC50 [3] [nM] | IC50 [4] [nM] | IC50 [5] [nM] | IC50 [6] [nM] | IC50 [7] [nM]
CCOc1ccc(C2=C(c3cnc(O[C@H]4CCN(CCCF)C4)nc3)c3ccc(O)cc3CCC2)c(F)n1 [Example 251, 6-(6-ethoxy-2-fluoro-3-pyridyl)-5-[2-[(3S)-1-(3-fluoropropyl)pyrrolidin-3-yl]oxypyrimidin-5-yl]-8,9-dihydro-7H-benzo[7]annulen-2-ol] | 0.5 | 89 | 4 | 0.4 | 0.5 | 5 | 57 | 104
CCOc1ccc(C2=C(c3ccc(O[C@H]4CCN(CCCF)C4)nc3)c3ccc(O)c(F)c3CCC2)c(F)n1 [Example 252, 6-(6-ethoxy-2-fluoro-3-pyridyl)-1-fluoro-5-[6-[(3S)-1-(3-fluoropropyl)pyrrolidin-3-yl]oxy-3-pyridyl]-8,9-dihydro-7H-benzo[7]annulen-2-ol] | 0.2 | 86 | 0.7 | 0.6 | 0.4 | 9 | 9 | 8
Oc1ccc2c(c1)CCCC(c1ccc(OC(F)(F)F)cc1)=C2c1ccc(O[C@H]2CCN(CCCF)C2)nc1 [Example 253, 5-[6-[(3S)-1-(3-fluoropropyl)pyrrolidin-3-yl]oxy-3-pyridyl]-6-[4-(trifluoromethoxy)phenyl]-8,9-dihydro-7H-benzo[7]annulen-2-ol] | 0.2 | 85 | 7 | 0.1 | 0.1 | 2 | 95 | 155
CC/C(=C(/c1ccc(O[C@H]2CCN(CCCF)C2)cc1)c1ccc2[nH]ncc2c1)c1ccc(F)cc1Cl [Example 255, 5-[(E)-2-(2-chloro-4-fluoro-phenyl)-1-[4-[(3S)-1-(3-fluoropropyl)pyrrolidin-3-yl]oxyphenyl]but-1-enyl]-1H-indazole] | 0.6 | 92 | 15 | 0.1 | 0.9 | 6 | 140 | 190
Oc1ccc(C2Sc3cc(O)ccc3OC2c2ccc(O[C@H]3CCN(CCCF)C3)cc2)cc1 (stereo partly drawn) [Example 258, 2-[4-[(3S)-1-(3-fluoropropyl)pyrrolidin-3-yl]oxyphenyl]-3-(4-hydroxyphenyl)-2,3-dihydro-1,4-benzoxathiin-6-ol] | 5 | 77 | 203 | 6 | 1 | 17 | 2420 | > 4000
